In patent US20180055844A1 (Celgene Corporation, priority 2011, published 2018):
pIC50: −log10 of the molar value. Where “and” joins values, the source holds several entries; their conditions need not be identical. Identical values can stand only once. Entries after “also recorded” stand apart in the source; their conditions may differ. Like-named read-outs stand apart in the source and are kept apart here.

Experiments:
[1] = test system: TNFα; experiment: LPS-induced TNFα; assay type: cell-based
[2] = test system: megakaryocyte progenitor cells; experiment: MK colonies (megakaryocyte progenitor cells); assay type: cell-based
[3] = test system: DoHH2; experiment: Cell cycle analysis; assay type: cell-based
Experimental: (§1) Cells were treated with DMSO or an amount of a compound provided herein for 48 hours. Propidium iodide staining for cell cycle was performed using CycleTEST PLUS (Becton Dickinson) according to manufacturer's protocol. Following staining, cells were analyzed by a FACSCalibur flow cytometer using ModFit LT software (Becton Dickinson).

[4] = test system: WSU-DLCL2; experiment: Cell cycle analysis; assay type: cell-based
Experimental: as §1

[5] = test system: DoHH2 xenograft; experiment: DoHH2 xenograft model; assay type: in vivo; conditions: for tumor growth inhibition: day 12
[6] = test system: WSU-DLCL2 xenograft; experiment: WSU-DLCL2 xenograft model; assay type: in vivo; conditions: combination with Rituxan (2 mg/kg iv qw)
[7] = test system: U87 GB xenograft; experiment: U87 GB xenograft model; assay type: in vivo; conditions: 3 and 30 mg/kg qd
[8] = test system: 1051; experiment: Activity against lenalidomide resistant cell lines; assay type: cell-based; conditions: 1051, n = 3; read-out: IC50
Experimental: (§2) The ability of compounds to effect the proliferation of MM cell lines was investigated in an in vitro study. Uptake of [^3H]-thymidine by H929 MM cells and 7-AAD uptake in several MM cell lines (H929, U266B1, Anbl-6, KMS-34, OPM-2, DF-15, DF15/R, CAG, MM1.S and LP-1) was measured as an indicator of cell proliferation. Cells were incubated in the presence of compounds for 72 hours ([^3H]-thymidine was included for the last 6 hours of the incubation period) or 5 days followed by 7-AAD uptake to measure and count viable cells.

[9] = test system: 1052; experiment: Activity against lenalidomide resistant cell lines; assay type: cell-based; conditions: 1052, n = 3; read-out: IC50
Experimental: as §2

[10] = test system: 1053; experiment: Activity against lenalidomide resistant cell lines; assay type: cell-based; conditions: 1053, n = 3; read-out: IC50
Experimental: as §2

[11] = test system: 1054; experiment: Activity against lenalidomide resistant cell lines; assay type: cell-based; conditions: 1054, n = 3; read-out: IC50
Experimental: as §2

[12] = test system: D1; experiment: Activity against lenalidomide resistant cell lines; assay type: cell-based; conditions: D1, n = 3; read-out: IC50
Experimental: as §2

[13] = test system: H929; experiment: Activity against lenalidomide resistant cell lines; assay type: cell-based; conditions: Homo sapiens, NCI-H929; H929, n = 3
Experimental: as §2

[14] = test system: DLBCL cell lines; experiment: In vitro DLBCL cell thymidine incorporation assay (panel); assay type: cell-based; conditions: 5 days, 3H-thymidine incorporation
Excerpt: Results of 3 independent experiments are shown (mean±SD) in FIG. 2. […] ABC-subtype cells appear more sensitive to the antiproliferative effect than other subtype cells including GCB-DLBCL and PMBL cells.

[15] = Stability in human plasma; assay type: in vitro ADME; conditions: read-out: t1/2 in human plasma
[16] = PK profiles in male monkeys; assay type: in vivo, monkey; conditions: for AUC(0-t) / Cmax: monkey, in vivo, po, male monkeys
[17] = test system: NFκB p65 and p50; experiment: NFκB activity in DLBCL cells (Active Motif transcription factor assay); assay type: cell-based; conditions: 0.1 μM, 1 μM and 10 μM, 2 days
Excerpt: NF-κB activity was examined with Active Motif transcription factor assay using nuclear extracts from cells following treatment.

[18] = test system: H929 myeloma cells; experiment: Cell cycle in siRNA-transfected H929 cells; assay type: cell-based; conditions: 72 h treatment
Experimental: as §1
The effect of cereblon in H929 myeloma cells was also evaluated. H929 cells were transfected with mock, negative control siRNA and CRBN-siRNA-7 for 24, 48, 72 and 96 hours.

[19] = test system: multiple myeloma (MM) cell lines; experiment: Inhibition of MM cell proliferation; assay type: cell-based
Experimental: as §2

[20] = test system: SK-HEP-1; experiment: Invasion of solid tumor cells; assay type: cell-based; conditions: Homo sapiens, SK-HEP1; SK-HEP-1 (VEGF), hepatocellular
[21] = test system: U251; experiment: Invasion of solid tumor cells; assay type: cell-based; conditions: Homo sapiens, U-251; U251 (PDGF), glioblastoma
[22] = test system: SF-295; experiment: Invasion of solid tumor cells; assay type: cell-based; conditions: Homo sapiens; SF-295 (PDGF), glioblastoma
[23] = test system: U87; experiment: Invasion of solid tumor cells; assay type: cell-based; conditions: Homo sapiens, U-87 MG; U87 (PDGF), glioblastoma
[24] = test system: Colo-205; experiment: Solid tumor cell colony formation; assay type: cell-based; conditions: Homo sapiens
[25] = test system: SF268; experiment: Solid tumor cell colony formation; assay type: cell-based; conditions: Homo sapiens, SF-268
[26] = test system: U251; experiment: Solid tumor cell colony formation; assay type: cell-based; conditions: Homo sapiens, U-251
[27] = test system: U87; experiment: Solid tumor cell colony formation; assay type: cell-based; conditions: Homo sapiens, U-87 MG
[28] = test system: MCF-7; experiment: Solid tumor cell colony formation; assay type: cell-based; conditions: Homo sapiens, MCF7
[29] = test system: ZR-75-1; experiment: Solid tumor cell colony formation; assay type: cell-based; conditions: Homo sapiens
[30] = test system: human umbilical vascular endothelial cell (HUVEC); experiment: HUVEC invasion; assay type: cell-based

## Cc1nc2cccc(N)c2c(=O)n1C1CCC(=O)NC1=O (stereo not drawn) [compound of Formula I, 3-(5-amino-2-methyl-4-oxo-4H-quinazolin-3-yl)-piperidine-2,6-dione]
[1]
  pIC50: 7.77
[2]; 10 μM
  inhibition of megakaryocyte progenitor cells: did not inhibit
[2]; read-out: Immature MK colonies IC50
  pIC50: < 5.00
[2]; read-out: Intermediate MK colonies IC50
  pIC50: < 5.00
[3]
  G1 arrest: induced G1 arrest
[4]
  G1 arrest: induced G1 arrest
[5]; 3 mpk in combination with Rituxan (1 mg/kg)
  tumor growth inhibition: 45%
[5]; 30 mpk in combination with Rituxan (1 mg/kg)
  tumor growth inhibition: 55%
[5]; combination with Rituxan, 30 mg/kg dose
  delay of time to tumor endpoint: 63%
[5]; in vivo
  blood vessels counts in tumor: significantly inhibited
[5]; single agent
  tumor growth: inhibited tumor growth
[6]; 3 mg
  complete regressions (tumor volume<25 mm^3): 60%
[6]; 30 mg
  complete regressions (tumor volume<25 mm^3): 90%
[7]
  U87 tumor growth: significantly inhibited; also recorded: inhibits
[8]
  pIC50: 5.53
[9]
  pIC50: 5.37
[10]
  pIC50: 5.68
[11]
  pIC50: 5.18
[12]
  pIC50: 6.51
[13]
  pIC50: 6.81
[14]
  concentration starting at which proliferation of several lines of DLBCL cells was significantly (p<0.05) inhibited: 0.1 to 1 µM
[15]
  half-life: 3.83 h
[16]; 0.3 mg/kg
  AUC(0-t): 1300 ng·h/mL and 4.5 µM·h
  Cmax: 100 ng/mL and 360 nM
[16]; 3 mg/kg
  AUC(0-t): 14000 ng·h/mL and 49 µM·h
  Cmax: 1100 ng/mL and 3.8 µM
[16]; 10 mg/kg
  AUC(0-t): 38000 ng·h/mL and 130 µM·h
  Cmax: 3100 ng/mL and 11 µM
[16]; 30 mg/kg
  AUC(0-t): 99000 ng·h/mL and 350 µM·h
  Cmax: 7700 ng/mL and 27 µM
[16]; up to 30 mg/kg, male monkey
  Exposures (AUC(0-t)) versus dose: increased in a dose proportional manner
[17]
  NFκB p65 and p50 activity: significantly inhibits
[18]; H929, control (before CRBN knockdown)
  drug-induced delay in cell cycle progression (decrease of the number of cells in S phase): 65%
[18]; H929, knockdown of CRBN
  drug-induced delay in cell cycle progression (decrease of the number of cells in S phase): 22%
[19]
  MM cell proliferation in a number of cell lines: inhibit MM cell proliferation
[20]
  pIC50: 8.21
[21]
  pIC50: 5.43
[22]
  pIC50: 6.62
[23]
  pIC50: 7.10
[24]
  inhibition at 10 µM: 17%
[25]
  inhibition at 10 µM: 0.6%
[26]
  inhibition at 10 µM: -6%
[27]
  inhibition at 10 µM: 2%
[28]
  inhibition at 10 µM: 1.4%
[29]
  inhibition at 10 µM: 90%
[30]; read-out: IC50 for inhibition of HGF-induced HUVEC invasion
  pIC50: 6.96
[30]; read-out: IC50 for inhibition of VEGF-induced HUVEC invasion
  pIC50: 9.54
[30]; read-out: IC50 for inhibition of bFGF-induced HUVEC invasion
  pIC50: 8.26
